The results in this text go back to PubChem BioAssay AID743162 (Broad Institute, 2013).

For the experiment, the system named is Mycobacterium tuberculosis replicating, CFU count, imaging. Briefly: growth inhibition of replicating M. tuberculosis, dose response, CFU by imaging, dry powder, 7108-01 (AID 743162). As to conditions: stronger effect = lower value.

Structures are written as SMILES. Activity calls are given as the source filed them. The rule behind the calls is not given here.

As to `CCOc1ccc(OC(=O)c2ccc3c(=O)n4c(nc3c2)CCC4)cc1`, the CFU count reads like this: (CFU at 10 uM, at 10 µM) 1.36e+09; (at 64 µM) 1e+09 (inactive).
On the same counts, the results for `c1ccc(-c2n[nH]c(-c3ccccn3)n2)nc1` are 1.06e+09 and 1.3e+09 (inactive).
For the compound `Cn1c(NC(=O)c2ccccc2)nc2ccccc21`, the CFU count was 1.98e+09 (CFU at 10 uM, at 10 µM) and 0 (at 64 µM).
`CSc1nsc(SCc2ccc(C(=O)Nc3cccc(C)c3)cc2)n1`: the CFU count (CFU at 10 uM, at 10 µM) is -1.9e+09 and the CFU count (at 64 µM) is 1.31e+06.
As for `CCC(C)n1nnc2c(=O)oc3ccccc3c21` (stereo not drawn), the CFU count is 8.38e+08 (CFU at 10 uM, at 10 µM) and 6.7e+08 (inactive) (at 64 µM).
On the same counts, the results for `COc1ccc(CNC(=O)Nc2ncc([N+](=O)[O-])s2)cc1` are 1.24e+09 and 220000.
On to `CCOC(=O)c1cc(COc2c(Cl)cccc2Cl)on1`, for which the CFU count (CFU at 10 uM, at 10 µM) was determined as 1.85e+09 and the CFU count (at 64 µM) is 1.7e+09 (inactive).
With `COc1ccc(CCNc2cc(-c3ccccc3)nc3ncnn23)cc1`, the CFU count (CFU at 10 uM, at 10 µM) was determined as 1.18e+09 and the CFU count (at 64 µM) was 4.3e+08 (inactive).
`COC(=O)C(C)Oc1ccc2cc(-c3ccccc3)c(=O)oc2c1` (stereo not drawn): the CFU count was 2.01e+09 (CFU at 10 uM, at 10 µM) and 1e+09 (inactive) (at 64 µM).
